Data taken from patent US20230303540A1 (Merck Sharp & Dohme LLC, priority 2020, published 2023).

The compounds below were run against GST-tagged truncated human mutant G2019S LRRK2 (Homo sapiens, UniProt Q5S007, G2019S) (assay: LRRK2 G2019S Km ATP LanthaScreen assay). Conditions: 134 μM ATP (Km ATP), LRRKtide substrate, mean IC50 values; read-out: LRRK2 pIC50 (converted).
Format: biochemical
In short: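 Compound preincubated 15 min at room temperature with enzyme in pH 8.5 Tris buffer (10 mM MgCl2). Then a 90 min reaction at ambient temperature with 134 μM (Km) ATP and fluorescein-LRRKtide. EDTA stop, Tb anti-phospho antibody TR-FRET; […]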

Compound	IC50 [nM]
CC1(N2CCN(c3cc4nc(Nc5cnn(C6CC6)c5Cl)ncc4cc3Cl)CC2)COCC1O (single isomer, unassigned) [Ex-1.45, (3S,4S or 3R,4R)-4-(4-{6-chloro-2-[(5-chloro-1-cyclopropyl-1H-pyrazol-4-yl)amino]quinazolin-7-yl}piperazin-1-yl)-4-methyloxolan-3-ol]	21.3
Cc1cc2cnc(Nc3cnn(C4CC4(F)F)c3Cl)nc2cc1N1CCN(C2(C)COCC2O)CC1 (single isomer, unassigned) [Ex-5.5, (3S,4S) or (3R,4R) 4-(4-(2-((5-chloro-1-(2,2-(R) or (S)difluorocyclopropyl)-1H-pyrazol-4-yl)amino)-6-methylquinazolin-7-yl)piperazin-1-yl)-4-methyltetrahydrofuran-3-ol]	0.42
Clc1cc2cnc(Nc3cnn(C4CC4)c3Cl)nc2cc1N1CCC(N2CCCC2)CC1 [Ex-1.44, 6-chloro-N-(5-chloro-1-cyclopropyl-1H-pyrazol-4-yl)-7-[4-(pyrrolidin-1-yl)piperidin-1-yl]quinazolin-2-amine]	22.3
CN1CCN(c2cc3nc(Nc4cnn(C)c4Cl)ncc3cc2Cl)CC1 [Ex-11.1, 6-Chloro-N-(5-chloro-1-methyl-1H-pyrazol-4-yl)-7-(4-methylpiperazin-1-yl)quinazolin-2-amine]	11.7
N#CCCN1CCN(c2cc3nc(Nc4cnn(C5CC5)c4Cl)ncc3cc2Cl)CC1 [Ex-1.29, 3-(4-{6-chloro-2-[(5-chloro-1-cyclopropyl-1H-pyrazol-4-yl)amino]quinazolin-7-yl}piperazin-1-yl)propanenitrile]	2.78
CN(C)c1cc2nc(Nc3cnn(C4CC4)c3)ncc2cc1Cl [Ex-3.29, 6-chloro-N-2-(1-cyclopropyl-1H-pyrazol-4-yl)-N-7-,N-7-dimethylquinazoline-2,7-diamine]	8.79
Cn1ncc(Nc2ncc3cc(Cl)c(N4CCN(C5COCC5O)CC4)cc3n2)c1Cl (single isomer, unassigned) [Ex-6.7, (3S,4S) or (3R,4R) 4-(4-{6-chloro-2-[(5-chloro-1-methyl-1H-pyrazol-4-yl)amino]quinazolin-7-yl}piperazin-1-yl)oxolan-3-ol]	1.59
Cc1c(Nc2ncc3cc(Cl)c(N4CCN(C5(C)COCC5O)CC4)cc3n2)cnn1C (single isomer, unassigned) [Ex-3.43, (3R,4R) or (3S,4S) 4-(4-{6-chloro-2-[(1,5-dimethyl-1H-pyrazol-4-yl)amino]quinazolin-7-yl}piperazin-1-yl)-4-methyloxolan-3-ol]	0.438
Cc1nn(C2C[C@@H](C)O[C@@H](C)C2)cc1Nc1ncc2ccc(N3C(=O)OC[C@@H]3C)cc2n1 (stereo partly drawn) [Ex-7.5, (4S)-3-[2-({1-[(2R,6S)-2,6-dimethyloxan-4-yl]-3-methyl-1H-pyrazol-4-yl}amino)quinazolin-7-yl]-4-methyl-1,3-oxazolidin-2-one]	33.7
C[C@@]1(N2CCN(c3cc4nc(Nc5cnn(C6CC6)c5C(F)F)ncc4cc3Cl)CC2)COC[C@@H]1O [Ex-6.56, (3R,4R)-4-(4-(6-chloro-2-((1-cyclopropyl-5-(difluoromethyl)-1H-pyrazol-4-yl)amino)quinazolin-7-yl)piperazin-1-yl)-4-methyltetrahydrofuran-3-ol]	0.08
CC1(N2CCN(c3cc4nc(Nc5cnn(C6CC6(F)F)c5Cl)ncc4cc3Cl)CC2)COCC1O (single isomer, unassigned) [Ex-6.34, (3S,4S) or (3R,4R) 4-[4-(6-chloro-2-{[5-chloro-1-(2,2-(R) or (S)difluorocyclopropyl)-1H-pyrazol-4-yl]amino}quinazolin-7-yl)piperazin-1-yl]-4-methyloxolan-3-ol]	10.6
CC1(N2CCN(c3cc4nc(Nc5cnn(C67CC(F)(C6)C7)c5Cl)ncc4cc3Cl)CC2)COCC1O (single isomer, unassigned) [Ex-13.8, (3S,4S) or (3R,4R)4-(4-(6-chloro-2-((5-chloro-1-(3-fluorobicyclo[1.1.1]pentan-1-yl)-1H-pyrazol-4-yl)amino)quinazolin-7-yl)piperazin-1-yl)-4-methyltetrahydrofuran-3-ol]	1.69
